Test results taken from paper PMC8286840, “Identifying SARS-CoV-2 antiviral compounds by screening for small molecule inhibitors of Nsp3 papain-like protease” (Biochemical Journal, 2021).
Where a name gives a salt, the structure may show the parent alone. Read-outs that look alike come from different tables or passages of the source.

Columns and labels:
[1] = biological target: T1, SARS-CoV-2 PLpro (nsp3 1564–1878) (Severe acute respiratory syndrome coronavirus 2, UniProt P0DTD1); assay: biochemical; parameters: FRET-quenched peptide (Pro3) cleavage by PLpro, 10 min pre-incubation, slope over 20 min, normalised to no-compound control; conditions: read-out: % of control remaining
[2] = biological target: T1, SARS-CoV-2 PLpro (nsp3 1564–1878); assay: biochemical; parameters: FRET-quenched peptide (Pro3) cleavage by PLpro, 10 min pre-incubation, slope over 20 min, normalised to no-compound control; conditions: read-out: % of control remaining; remark: listed apart in the source

## CN(C)S(=O)(=O)c1ccc2c(c1)/C(=C/c1cc3c([nH]1)CCCC3)C(=O)N2 [SU6656]
[1]; Well no.=2500, high concentration screen
  remaining activity at 3.75 µM: 99.1%
[1]; Well no.=8074, high concentration screen
  remaining activity at 3.75 µM: 98.5%
[2]; Well no.=2500, low concentration screen
  remaining activity at 1.25 µM: 94.8%
[2]; Well no.=8074, low concentration screen
  remaining activity at 1.25 µM: 101%

## O=[N+]([O-])c1ccc(CSc2ncnc3c2ncn3[C@@H]2O[C@H](CO)[C@@H](O)[C@H]2O)cc1 [S-(4-Nitrobenzyl)-6-thioinosine]
[1]; Well no.=949, high concentration screen
  remaining activity at 3.75 µM: 101%
[2]; Well no.=949, low concentration screen
  remaining activity at 1.25 µM: 105%

## O=S(=O)(c1cccc2cnccc12)N1CCCNCC1 [Fasudil hydrochloride - 1-(5-Isoquinolinesulfonyl)homopiperazine hydrochloride]
[1]; Well no.=2338, high concentration screen
  remaining activity at 3.75 µM: 99%
[2]; Well no.=2338, low concentration screen
  remaining activity at 1.25 µM: 97.4%

## CCCC(=O)OC(CNC(C)(C)C)COc1nsnc1N1CCOCC1 (racemic) [(RS)-Butyryltimolol]
[1]; Well no.=7133, high concentration screen
  remaining activity at 3.75 µM: 96.2%
[2]; Well no.=7133, low concentration screen
  remaining activity at 1.25 µM: 102%

## CCCCC[C@H](O)/C=C/[C@H]1OC(=O)C[C@H](O)[C@@H]1C/C=C\CCCC(=O)O [11-Dehydro-thromboxane B2]
[1]; Well no.=4288, high concentration screen
  remaining activity at 3.75 µM: 99.7%
[2]; Well no.=4288, low concentration screen
  remaining activity at 1.25 µM: 103%

## CCN[C@H]1CN(CCCOC)S(=O)(=O)c2sc(S(N)(=O)=O)cc21 [Brinzolamide]
[1]; Well no.=5028, high concentration screen
  remaining activity at 3.75 µM: 105%
[2]; Well no.=5028, low concentration screen
  remaining activity at 1.25 µM: 105%

## Nc1cc[nH]c(=O)n1 [Cytosine]
[1]; Well no.=6579, high concentration screen
  remaining activity at 3.75 µM: 103%
[2]; Well no.=6579, low concentration screen
  remaining activity at 1.25 µM: 101%

## O=C1CC[C@@]2(O)[C@H]3Cc4ccc(O)c5c4[C@@]2(CCN3CC2CC2)[C@H]1O5 [Naltrexone hydrochloride]
[1]; Well no.=997, high concentration screen
  remaining activity at 3.75 µM: 100%
[2]; Well no.=997, low concentration screen
  remaining activity at 1.25 µM: 97.6%

## N[C@H](CO)C(=O)O [D-Serine]
[1]; Well no.=1362, high concentration screen
  remaining activity at 3.75 µM: 93.5%
[2]; Well no.=1362, low concentration screen
  remaining activity at 1.25 µM: 92.8%

## O=c1c(-c2ccc(O)cc2)coc2cc(O)cc(O)c12 [Genistein - 5,7-Dihydroxy-3-(4-hydroxyphenyl)-4H-1-benzopyran-4-one]
[1]; Well no.=2342, high concentration screen
  remaining activity at 3.75 µM: 95.4%
[2]; Well no.=2342, low concentration screen
  remaining activity at 1.25 µM: 95.4%

## CCc1cnc(N2CCC(c3nc(COc4ccc(-n5cnnn5)cc4)cs3)CC2)nc1 [MBX-2982]
[1]; Well no.=8381, high concentration screen
  remaining activity at 3.75 µM: 99.5%
[2]; Well no.=8381, low concentration screen
  remaining activity at 1.25 µM: 102%

## CC(COc1ccccc1)N(CCCl)Cc1ccccc1 (centres unmarked) [Phenoxybenzamine.HCl]
[1]; Well no.=1761, high concentration screen
  remaining activity at 3.75 µM: 101%
[2]; Well no.=1761, low concentration screen
  remaining activity at 1.25 µM: 102%

## CCc1cccc2c3c([nH]c12)C(CC)(CC(=O)O)OCC3 (centres unmarked) [Etodolac]
[1]; Well no.=740, high concentration screen
  remaining activity at 3.75 µM: 97.9%
[2]; Well no.=740, low concentration screen
  remaining activity at 1.25 µM: 95.3%

## CN(C/C=C/C#CC(C)(C)C)Cc1cccc2ccccc12 [Terbinafine]
[1]; Well no.=1580, high concentration screen
  remaining activity at 3.75 µM: 97.8%
[2]; Well no.=1580, low concentration screen
  remaining activity at 1.25 µM: 95%

## CC(C)=CCC[C@](C)(O)[C@H]1CC[C@]2(C)[C@@H]1[C@H](O)C[C@@H]1[C@@]3(C)CC[C@H](O)C(C)(C)[C@@H]3[C@@H](O[C@@H]3O[C@H](CO)[C@@H](O)[C@H](O)[C@H]3O)C[C@]12C [Ginsenoside Rh1]
[1]; Well no.=6546, high concentration screen
  remaining activity at 3.75 µM: 93.7%
[2]; Well no.=6546, low concentration screen
  remaining activity at 1.25 µM: 98.2%

## CC(C)(C)c1[nH]cnc1/C=c1\[nH]c(=O)/c(=C/c2ccccc2)[nH]c1=O [Plinabulin (NPI-2358)]
[1]; Well no.=4834, high concentration screen
  remaining activity at 3.75 µM: 102%
[2]; Well no.=4834, low concentration screen
  remaining activity at 1.25 µM: 99%

## CCc1nn(CCCN2CCN(c3cccc(Cl)c3)CC2)c(=O)n1CCOc1ccccc1 [Nefazodone (hydrochloride)]
[1]; Well no.=6765, high concentration screen
  remaining activity at 3.75 µM: 92.8%
[2]; Well no.=6765, low concentration screen
  remaining activity at 1.25 µM: 97.2%

## COc1ccc2[nH]c(I)c(CCNC(C)=O)c2c1 [2-Iodomelatonin]
[1]; Well no.=622, high concentration screen
  remaining activity at 3.75 µM: 99.7%
[2]; Well no.=622, low concentration screen
  remaining activity at 1.25 µM: 99.9%

## O=S(=O)(NCCSSCCNS(=O)(=O)c1cc(Cl)ccc1Cl)c1cc(Cl)ccc1Cl [KC7F2]
[1]; Well no.=8580, high concentration screen
  remaining activity at 3.75 µM: 102%
[2]; Well no.=8580, low concentration screen
  remaining activity at 1.25 µM: 107%

## C=CC(=O)N1C/C(=C\c2ccc([N+](=O)[O-])cc2)C(=O)/C(=C/c2ccc([N+](=O)[O-])cc2)C1 [1-acryloyl-3,5-bis((E)-4-nitrobenzylidene)piperidin-4-one]
[1]; Well no.=6015, high concentration screen
  remaining activity at 3.75 µM: 99.9%
[2]; Well no.=6015, low concentration screen
  remaining activity at 1.25 µM: 103%

## COc1ccccc1OCC(O)CO (centres unmarked) [Guaifenesin]
[1]; Well no.=2180, high concentration screen
  remaining activity at 3.75 µM: 100%
[2]; Well no.=2180, low concentration screen
  remaining activity at 1.25 µM: 97.5%

## N[C@@H](CCC(=O)O)C(=O)O [(S)-Glutamic acid]
[1]; Well no.=6165, high concentration screen
  remaining activity at 3.75 µM: 96.9%
[2]; Well no.=6165, low concentration screen
  remaining activity at 1.25 µM: 98.9%

## NC(=O)c1ccccc1 [Benzamide]
[1]; Well no.=358, high concentration screen
  remaining activity at 3.75 µM: 95.9%
[2]; Well no.=358, low concentration screen
  remaining activity at 1.25 µM: 96.5%

## CN1C(=O)C(Cc2c[nH]c3ccccc23)NC1=S (centres unmarked) [Necrostatin-1]
[1]; Well no.=2493, high concentration screen
  remaining activity at 3.75 µM: 98.6%
[1]; Well no.=6196, high concentration screen
  remaining activity at 3.75 µM: 92.5%
[1]; Well no.=8505, high concentration screen
  remaining activity at 3.75 µM: 104%
[2]; Well no.=2493, low concentration screen
  remaining activity at 1.25 µM: 95.6%
[2]; Well no.=6196, low concentration screen
  remaining activity at 1.25 µM: 92.6%
[2]; Well no.=8505, low concentration screen
  remaining activity at 1.25 µM: 109%

## CO[C@@H]1[C@H](OC(=O)/C=C/C=C/C=C/C=C/C(=O)O)CC[C@]2(CO2)[C@H]1[C@@]1(C)O[C@@H]1CC=C(C)C [Fumagillin]
[1]; Well no.=1621, high concentration screen
  remaining activity at 3.75 µM: 100%
[1]; Well no.=3283, high concentration screen
  remaining activity at 3.75 µM: 101%
[2]; Well no.=1621, low concentration screen
  remaining activity at 1.25 µM: 103%
[2]; Well no.=3283, low concentration screen
  remaining activity at 1.25 µM: 102%

## COc1ccc(S(=O)(=O)N(CCO)c2ccccc2CN(C)C/C=C/c2ccc(Cl)cc2)cc1 [KN-93]
[1]; Well no.=2556, high concentration screen
  remaining activity at 3.75 µM: 102%
[2]; Well no.=2556, low concentration screen
  remaining activity at 1.25 µM: 103%

## NS(=O)(=O)Cc1noc2ccccc12 [Zonisamide]
[1]; Well no.=1879, high concentration screen
  remaining activity at 3.75 µM: 96.4%
[2]; Well no.=1879, low concentration screen
  remaining activity at 1.25 µM: 94.7%

## C=CCN1CC[C@]23c4c5ccc(O)c4O[C@H]2/C(=N/NC(=O)c2ccccc2)CC[C@@]3(O)[C@H]1C5 [Naloxone benzoylhydrazone]
[1]; Well no.=798, high concentration screen
  remaining activity at 3.75 µM: 99.5%
[2]; Well no.=798, low concentration screen
  remaining activity at 1.25 µM: 93.2%

## C[S+]([O-])CCCN=C=S (centres unmarked) [Iberin]
[1]
  remaining activity at 3.75 µM: 90.7%
[2]
  remaining activity at 1.25 µM: 95.3%

## CCC(=O)O[C@@H](O[P@](=O)(CCCCc1ccccc1)CC(=O)N1C[C@H](C2CCCCC2)C[C@H]1C(=O)O)C(C)C [Fosinopril Sodium]
[1]; Well no.=8492, high concentration screen
  remaining activity at 3.75 µM: 102%
[2]; Well no.=8492, low concentration screen
  remaining activity at 1.25 µM: 101%

## C[C@H]1CNCCc2ccc(Cl)cc21 [Lorcaserin HCl]
[1]; Well no.=4742, high concentration screen
  remaining activity at 3.75 µM: 102%
[2]; Well no.=4742, low concentration screen
  remaining activity at 1.25 µM: 102%

## COc1c2c3c4c(c(OC)c(=O)c5c(O)cc(OC)c(c6c(OC)cc(O)c(c1=O)c63)c54)[C@@H](C(C)=O)[C@@](C)(O)C2 [Hypocrellin A]
[1]; Well no.=3645, high concentration screen
  remaining activity at 3.75 µM: 92.4%
[2]; Well no.=3645, low concentration screen
  remaining activity at 1.25 µM: 94%

## CCSC(=N)N [S-Ethylisothiourea hydrobromide]
[1]; Well no.=459, high concentration screen
  remaining activity at 3.75 µM: 101%
[2]; Well no.=459, low concentration screen
  remaining activity at 1.25 µM: 102%
